Laboratory results from US6355799B1, “Substituted benzene compounds, process for their preparation, and herbicidal and defoliant compositions containing them” (ISK Americas Incorporated, priority 1997, dated 2002).

Legend:
Type in all cases: in vivo
[1] = test system: upland rice (Oryza sp., var. Tebonnet, RICE); test: Post-emerge test, crop safety; conditions: post-emerge, 14 days after application, rating scale 0-100
Summary of the method: (§1)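 Fourteen days after spraying, crop and weed injury was graded visually from 0, no effect, to 100, every plant dead. Test substances were dissolved in acetone and applied at 15–1000 g ai/ha with a flat-fan nozzle. Application was either pre-emergence, one day after sowing, or post-emergence at the 2–3 leaf stage.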

[2] = test system: field corn (Zea mays L., var. Dekalb 535, CORN); test: Post-emerge test, crop safety; conditions: post-emerge, 14 days after application, rating scale 0-100
Summary of the method: as §1

[3] = test system: green foxtail (Setaria viridis, SETVI); test: Post-emerge test, greenhouse herbicide activity screening; conditions: post-emerge, 14 days after application, rating scale 0-100
Summary of the method: (§2)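 Visual ratings on a 0-100 scale (0 no damage, 100 all plants dead) were taken at 14 days after treatment. Rates of 15-1000 g ai/ha in acetone, 187 l/ha, were sprayed onto soil one day after planting (pre-emerge) or onto 2-3 leaf plants with 0.25% v/v surfactant (post-emerge).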

[4] = test system: large crabgrass (Digitaria sanguinalis, DIGSA); test: as above; conditions: post-emerge, 14 days after application, rating scale 0-100
Summary of the method: as §2

[5] = test system: ivyleaf morningglory (Ipomoea hederacea, IPOHE); test: as above; conditions: post-emerge, 14 days after application, rating scale 0-100
Summary of the method: as §2

[6] = test system: sicklepod (Cassia obtusifolia, CASOB); test: as above; conditions: post-emerge, 14 days after application, rating scale 0-100
Summary of the method: as §2

[7] = test system: johnsongrass (Sorghum halepense, SORHA); test: as above; conditions: post-emerge, 14 days after application, rating scale 0-100
Summary of the method: as §2

[8] = test system: lambsquarters (Chenopodium album, CHEAL); test: as above; conditions: post-emerge, 14 days after application, rating scale 0-100
Summary of the method: as §2

[9] = test system: velvetleaf (Abutilon theophrasti, ABUTH); test: as above; conditions: post-emerge, 14 days after application, rating scale 0-100
Summary of the method: as §2

[10] = test system: barnyardgrass (Echinochloa crus-galli, ECHCG); test: as above; conditions: post-emerge, 14 days after application, rating scale 0-100
Summary of the method: as §2

[11] = test system: redroot pigweed (Amaranthus retroflexus, AMARE); test: as above; conditions: post-emerge, 14 days after application
Summary of the method: as §2

[12] = test system: green foxtail (Setaria viridis, SETVI); test: Pre-emerge test, greenhouse herbicide activity screening; conditions: pre-emerge, 14 days after application
Summary of the method: as §1

[13] = test system: large crabgrass (Digitaria sanguinalis, DIGSA); test: as above; conditions: pre-emerge, 14 days after application
Summary of the method: as §1

[14] = test system: ivyleaf morningglory (Ipomoea hederacea, IPOHE); test: as above; conditions: pre-emerge, 14 days after application
Summary of the method: as §1

[15] = test system: sicklepod (Cassia obtusifolia, CASOB); test: as above; conditions: pre-emerge, 14 days after application
Summary of the method: as §1

[16] = test system: johnsongrass (Sorghum halepense, SORHA); test: as above; conditions: pre-emerge, 14 days after application
Summary of the method: as §1

[17] = test system: lambsquarters (Chenopodium album, CHEAL); test: as above; conditions: pre-emerge, 14 days after application
Summary of the method: as §1

[18] = test system: velvetleaf (Abutilon theophrasti, ABUTH); test: as above; conditions: pre-emerge, 14 days after application
Summary of the method: as §1

[19] = test system: barnyardgrass (Echinochloa crus-galli, ECHCG); test: as above; conditions: pre-emerge, 14 days after application
Summary of the method: as §1

[20] = test system: upland rice (Oryza sp., var. Tebonnet, RICE); test: Pre-emerge test, crop safety; conditions: pre-emerge, 14 days after application; for phytotoxicity rating RICE: rating scale 0-100; for phytotoxicity rating RICE (crop damage): scale 0-100
Summary of the method: as §2

[21] = test system: field corn (Zea mays L., var. Dekalb 535, CORN); test: Pre-emerge test, crop safety; conditions: pre-emerge, 14 days after application; for phytotoxicity rating CORN: rating scale 0-100; for phytotoxicity rating CORN (crop damage): scale 0-100
Summary of the method: as §2

[22] = test system: redroot pigweed (Amaranthus retroflexus, AMARE); test: Pre-emerge test, greenhouse herbicide activity screening; conditions: pre-emerge, 14 days after application
Summary of the method: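 Plants grown in 10 cm pots of sandy loam mix received acetone-dissolved compounds through a moving flat-fan nozzle. Doses ranged from 15 to 1000 g ai/ha. Pre-emerge pots were seeded one day earlier, post-emerge pots 8–21 days earlier. Fourteen days on, each pot was graded 0–100 for damage.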

[23] = 250 g ai/ha, rating scale 0-100

CCOC(=O)CC(C)=NNc1c(OC)c(Cl)cc(F)c1-n1c(=O)cc(C(F)(F)F)n(C)c1=O [15-16]
Post-emerge Herbicidal Activity RICE (crop damage rating) ([1]; 63 g ai/ha): 40 | Post-emerge Herbicidal Activity RICE (crop damage rating) ([1]; 250 g ai/ha): 80 | Post-emerge Herbicidal Activity CORN (crop damage rating) ([2]; 63 g ai/ha): 15 | Post-emerge Herbicidal Activity CORN (crop damage rating) ([2]; 250 g ai/ha): 45 | Post-emerge Herbicidal Activity SETVI (phytotoxicity rating) ([3]; 63 g ai/ha): 30 | Post-emerge Herbicidal Activity SETVI (phytotoxicity rating) ([3]; 250 g ai/ha): 60 | Post-emerge Herbicidal Activity DIGSA (phytotoxicity rating) ([4]; 63 g ai/ha): 20 | Post-emerge Herbicidal Activity DIGSA (phytotoxicity rating) ([4]; 250 g ai/ha): 80 | Post-emerge Herbicidal Activity IPOHE (phytotoxicity rating) ([5]; 63 g ai/ha): 100 | Post-emerge Herbicidal Activity IPOHE (phytotoxicity rating) ([5]; 250 g ai/ha): 100 | Post-emerge Herbicidal Activity CASOB (phytotoxicity rating) ([6]; 63 g ai/ha): 80 | Post-emerge Herbicidal Activity CASOB (phytotoxicity rating) ([6]; 250 g ai/ha): 100 | Post-emerge Herbicidal Activity SORHA (phytotoxicity rating) ([7]; 63 g ai/ha): 10 | Post-emerge Herbicidal Activity SORHA (phytotoxicity rating) ([7]; 250 g ai/ha): 70 | Post-emerge Herbicidal Activity CHEAL (phytotoxicity rating) ([8]; 63 g ai/ha): 100 | Post-emerge Herbicidal Activity CHEAL (phytotoxicity rating) ([8]; 250 g ai/ha): 100 | Post-emerge Herbicidal Activity ABUTH (phytotoxicity rating) ([9]; 63 g ai/ha): 100 | Post-emerge Herbicidal Activity ABUTH (phytotoxicity rating) ([9]; 250 g ai/ha): 100 | Post-emerge Herbicidal Activity ECHCG (phytotoxicity rating) ([10]; 63 g ai/ha): 10 | Post-emerge Herbicidal Activity ECHCG (phytotoxicity rating) ([10]; 250 g ai/ha): 90 | Post-emerge Herbicidal Activity AMARE (phytotoxicity rating) ([11]; 63 g ai/ha, rating scale 0-100 (0 no damage, 100 complete death)): 80 | Post-emerge Herbicidal Activity AMARE (phytotoxicity rating) [11, 23]: 100 | phytotoxicity rating SETVI ([12]; 63 g ai/ha, rating scale 0-100): 100 | phytotoxicity rating SETVI [12, 23]: 100 | phytotoxicity rating DIGSA ([13]; 63 g ai/ha, rating scale 0-100): 100 | phytotoxicity rating DIGSA [13, 23]: 100 | phytotoxicity rating IPOHE ([14]; 63 g ai/ha, rating scale 0-100): 90 | phytotoxicity rating IPOHE [14, 23]: 100 | phytotoxicity rating CASOB ([15]; 63 g ai/ha, rating scale 0-100): 90 | phytotoxicity rating CASOB [15, 23]: 100 | phytotoxicity rating SORHA ([16]; 63 g ai/ha, rating scale 0-100): 100 | phytotoxicity rating SORHA [16, 23]: 100 | phytotoxicity rating CHEAL ([17]; 63 g ai/ha, rating scale 0-100): 100 | phytotoxicity rating CHEAL [17, 23]: 100 | phytotoxicity rating ABUTH ([18]; 63 g ai/ha, rating scale 0-100): 100 | phytotoxicity rating ABUTH [18, 23]: 100 | phytotoxicity rating ECHCG ([19]; 63 g ai/ha, rating scale 0-100): 80 | phytotoxicity rating ECHCG [19, 23]: 100 | phytotoxicity rating RICE ([20]; 63 g ai/ha): 90 | phytotoxicity rating RICE ([20]; 250 g ai/ha): 100 | phytotoxicity rating CORN ([21]; 63 g ai/ha): 65 | phytotoxicity rating CORN ([21]; 250 g ai/ha): 100 | phytotoxicity rating AMARE ([22]; 63 g ai/ha, rating scale 0-100): 100 | phytotoxicity rating AMARE [22, 23]: 100

COc1c(Br)cc(F)c(-n2c(=O)cc(C(F)(F)F)n(C)c2=O)c1N(C(=O)C=Cc1ccccc1)C(=O)C=Cc1ccccc1 [2-178]
RICE phytotoxicity rating (crop damage) ([1]; 63 g ai/ha): 0 | RICE phytotoxicity rating (crop damage) ([1]; 250 g ai/ha): 0 | CORN phytotoxicity rating (crop damage) ([2]; 63 g ai/ha): 0 | CORN phytotoxicity rating (crop damage) ([2]; 250 g ai/ha): 0 | SETVI phytotoxicity rating ([3]; 63 g ai/ha): 0 | SETVI phytotoxicity rating ([3]; 250 g ai/ha): 0 | DIGSA phytotoxicity rating ([4]; 63 g ai/ha): 0 | DIGSA phytotoxicity rating ([4]; 250 g ai/ha): 0 | IPOHE phytotoxicity rating ([5]; 63 g ai/ha): 30 | IPOHE phytotoxicity rating ([5]; 250 g ai/ha): 20 | CASOB phytotoxicity rating ([6]; 63 g ai/ha): 0 | CASOB phytotoxicity rating ([6]; 250 g ai/ha): 0 | SORHA phytotoxicity rating ([7]; 63 g ai/ha): 0 | SORHA phytotoxicity rating ([7]; 250 g ai/ha): 0 | CHEAL phytotoxicity rating ([8]; 63 g ai/ha): 30 | CHEAL phytotoxicity rating ([8]; 250 g ai/ha): 40 | ABUTH phytotoxicity rating ([9]; 63 g ai/ha): 40 | ABUTH phytotoxicity rating ([9]; 250 g ai/ha): 50 | ECHCG phytotoxicity rating ([10]; 63 g ai/ha): 0 | ECHCG phytotoxicity rating ([10]; 250 g ai/ha): 0 | AMARE phytotoxicity rating ([11]; 63 g ai/ha, rating scale 0-100): 50 | AMARE phytotoxicity rating [11, 23]: 70 | phytotoxicity rating SETVI ([12]; 63 g ai/ha, scale 0-100): 0 | phytotoxicity rating SETVI ([12]; 250 g ai/ha, scale 0-100): 0 | phytotoxicity rating DIGSA ([13]; 63 g ai/ha, scale 0-100): 0 | phytotoxicity rating DIGSA ([13]; 250 g ai/ha, scale 0-100): 0 | phytotoxicity rating IPOHE ([14]; 63 g ai/ha, scale 0-100): 0 | phytotoxicity rating IPOHE ([14]; 250 g ai/ha, scale 0-100): 0 | phytotoxicity rating CASOB ([15]; 63 g ai/ha, scale 0-100): 0 | phytotoxicity rating CASOB ([15]; 250 g ai/ha, scale 0-100): 0 | phytotoxicity rating SORHA ([16]; 63 g ai/ha, scale 0-100): 0 | phytotoxicity rating SORHA ([16]; 250 g ai/ha, scale 0-100): 0 | phytotoxicity rating CHEAL ([17]; 63 g ai/ha, scale 0-100): 20 | phytotoxicity rating CHEAL ([17]; 250 g ai/ha, scale 0-100): 0 | phytotoxicity rating ABUTH ([18]; 63 g ai/ha, scale 0-100): 0 | phytotoxicity rating ABUTH ([18]; 250 g ai/ha, scale 0-100): 0 | phytotoxicity rating ECHCG ([19]; 63 g ai/ha, scale 0-100): 0 | phytotoxicity rating ECHCG ([19]; 250 g ai/ha, scale 0-100): 0 | phytotoxicity rating RICE (crop damage) ([20]; 63 g ai/ha): 0 | phytotoxicity rating RICE (crop damage) ([20]; 250 g ai/ha): 0 | phytotoxicity rating CORN (crop damage) ([21]; 63 g ai/ha): 0 | phytotoxicity rating CORN (crop damage) ([21]; 250 g ai/ha): 0 | phytotoxicity rating AMARE ([22]; 63 g ai/ha, scale 0-100): 0 | phytotoxicity rating AMARE ([22]; 250 g ai/ha, scale 0-100): 0
